# Measurements: patent US20250154130A1, “NOVEL THR BETA ANALOGS AND USES THEREOF” (MADRIGAL PHARMACEUTICALS, INC., priority 2022, published 2025)
# Legend:
# TR alpha LBD-GST = molecular target: T1, TR alpha LBD-GST (Homo sapiens, UniProt P10827); test: Thyroid Receptor Alpha Coactivator - Agonist (LanthaScreen TR-FRET coactivator recruitment assay); assay type: biochemical; settings: 1% DMSO, relative to T3 response
# T1 construct: incubated with the TR alpha LBD-GST or TR beta LBD-GST; purchased ThermoFIsher
# Experimental: Thyroid receptor beta and thyroid receptor alpha coactivator recruitment assays were performed using LanthaScreen™ TR-FRET TR alpha or beta Coactivator Assay Kits (ThermoFIsher). The control agonist 3,3′,5-Triiodo-L-thyronine sodium salt, T3 (SIGMA) was used to validate the assay. Test compound and/or vehicle was incubated with the TR alpha LBD-GST or TR beta LBD-GST and coactivator peptide (Fluorescein-SRC2-2 (LKEKHKILHRLLQDSSSPV) (SEQ ID NO: 1)) for 30 minutes at RT. Determination of the amount of complex formed was read spectrofluorimetrically (excitation: 337 nm, emission: 520/490 nm) on a PHERAstar FS instrument (BMG). […]
# TR beta LBD-GST = molecular target: T2, TR beta LBD-GST (Homo sapiens, UniProt P10828); test: Thyroid Receptor Beta Coactivator - Agonist (LanthaScreen TR-FRET coactivator recruitment assay); assay type: biochemical; settings: 1% DMSO, relative to T3 response
# T2 construct: incubated with the TR alpha LBD-GST or TR beta LBD-GST; purchased ThermoFIsher
# T2 sequence (P10828 217-461 limits assumed): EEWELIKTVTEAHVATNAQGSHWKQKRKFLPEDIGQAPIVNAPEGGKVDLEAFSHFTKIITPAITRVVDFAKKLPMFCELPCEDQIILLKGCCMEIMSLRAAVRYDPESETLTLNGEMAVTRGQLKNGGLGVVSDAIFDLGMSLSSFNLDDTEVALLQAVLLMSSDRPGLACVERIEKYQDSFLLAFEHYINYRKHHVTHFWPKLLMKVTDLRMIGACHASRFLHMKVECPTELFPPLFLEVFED
# Experimental: Thyroid receptor beta and thyroid receptor alpha coactivator recruitment assays were performed using LanthaScreen™ TR-FRET TR alpha or beta Coactivator Assay Kits (ThermoFIsher). The control agonist 3,3′,5-Triiodo-L-thyronine sodium salt, T3 (SIGMA) was used to validate the assay. Test compound and/or vehicle was incubated with the TR alpha LBD-GST or TR beta LBD-GST and coactivator peptide (Fluorescein-SRC2-2 (LKEKHKILHRLLQDSSSPV) (SEQ ID NO: 1)) for 30 minutes at RT. Determination of the amount of complex formed was read spectrofluorimetrically (excitation: 337 nm, emission: 520/490 nm) on a PHERAstar FS instrument (BMG). […] Compounds were screened at 30, 10, 3, 1, 0.3, 0.1, and 0.03 μM.
# T1 sequence (P10827 163-410 isoform P10827-2 limits assumed, other chains not shown): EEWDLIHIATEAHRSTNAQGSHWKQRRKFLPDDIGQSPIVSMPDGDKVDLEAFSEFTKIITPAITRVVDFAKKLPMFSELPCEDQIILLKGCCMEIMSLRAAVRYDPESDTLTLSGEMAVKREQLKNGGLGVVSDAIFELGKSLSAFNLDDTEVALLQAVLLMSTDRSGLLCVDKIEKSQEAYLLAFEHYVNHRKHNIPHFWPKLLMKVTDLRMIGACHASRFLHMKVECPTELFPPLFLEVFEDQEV
structure (smiles),measurement,setting,value
"N#Cc1cn(-c2cc(Cl)c(Oc3n[nH]c(=O)c4ccccc34)c(Cl)c2)c(=O)[nH]c1=O [Compound g, 1-(3,5-dichloro-4-((4-oxo-3,4-dihydrophthalazin-1-yl)oxy)phenyl)-2,4-dioxo-1,2,3,4-tetrahydropyrimidine-5-carbonitrile]",Agonist Response,TR alpha LBD-GST; test compound 10 nM,1.1
same,Agonist Response,TR alpha LBD-GST; test compound 0.03 mcM,1.4
same,Agonist Response,TR alpha LBD-GST; test compound 0.1 mcM,2.2
same,Agonist Response,TR alpha LBD-GST; test compound 0.3 mcM,3.9
same,Agonist Response,TR alpha LBD-GST; test compound 1 mcM,12.7
same,Agonist Response,TR alpha LBD-GST; test compound 3 mcM,19.2
same,Agonist Response,TR alpha LBD-GST; test compound 10 mcM,19.5
same,Agonist Response,TR alpha LBD-GST; test compound 30 mcM,18.6
same,Agonist Response,TR beta LBD-GST; test compound 10 nM,−4.5
same,Agonist Response,TR beta LBD-GST; test compound 0.03 mcM,−1.2
same,Agonist Response,TR beta LBD-GST; test compound 0.1 mcM,0.7
same,Agonist Response,TR beta LBD-GST; test compound 0.3 mcM,10.5
same,Agonist Response,TR beta LBD-GST; test compound 1 mcM,28.7
same,Agonist Response,TR beta LBD-GST; test compound 3 mcM,31.1
same,Agonist Response,TR beta LBD-GST; test compound 10 mcM,32.6
same,Agonist Response,TR beta LBD-GST; test compound 30 mcM,31.8
